We go through 20 compounds from PubChem BioAssay (NCI).

Among the test systems are CAKI-1 renal; DU-145 prostate; HCC-2998 colon; HCT-116 colon; HL-60(TB) leukemia; IGROV1 ovarian; NCI-H226 lung; PC-3 prostate; SK-MEL-5 melanoma; UACC-257 melanoma.
Holding throughout (test): NCI-60 cell line screen, 48 h

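Grown in 96-well plates, cells were treated for 48 hours with each compound at five concentrations. Insufficient inhibition: endpoint recorded as highest concentration tested. TGI is the concentration that stops growth completely.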

On to `COc1ccc(Cc2nc3cc(C(F)(F)F)ccc3n2C[C@@H]2CCCN3CCCCC23)cc1` (stereo not given in full), for which the TGI in the assay with CAKI-1 renal was found to be 25.6 µM; with DU-145 prostate it was 26.6 µM; with HCC-2998 colon, 5.94 µM; with HCT-116 colon it was 20.4 µM; with HL-60(TB) leukemia, 19.5 µM; with IGROV1 ovarian, 15.7 µM. Also, the TGI in the assay with NCI-H226 lung amounted to 37 µM; in the assay with PC-3 prostate, 24 µM; in the assay with SK-MEL-5 melanoma, 20.3 µM; with UACC-257 melanoma, 6.77 µM.
For `CC(=O)OCCn1c(Cc2ccc(Cl)cc2)nn(C(C)=O)c1=O`, the TGI with CAKI-1 renal, in the assay on DU-145 prostate, in the assay with HCC-2998 colon, with HCT-116 colon, in the assay with HL-60(TB) leukemia and with IGROV1 ovarian was over 100 µM in each case. Further, the TGI in the assay with NCI-H226 lung, in the assay with PC-3 prostate, with SK-MEL-5 melanoma and in the assay on UACC-257 melanoma was over 100 µM each time.
As to `COc1cc(CCNC2=CC(=O)c3ncccc3C2=O)ccc1O`, the TGI in the assay with CAKI-1 renal was 12 µM; in the assay with DU-145 prostate it was 12.3 µM; in the assay on HCC-2998 colon it was 16.8 µM; in the assay on HCT-116 colon, over 34.4 µM; in the assay with HL-60(TB) leukemia, over 26.9 µM; in the assay with IGROV1 ovarian, 10.1 µM. Besides, the TGI in the assay with NCI-H226 lung was found to be 6.62 µM; in the assay on PC-3 prostate, 22.5 µM; in the assay on SK-MEL-5 melanoma, 1.84 µM; with UACC-257 melanoma it was 4.28 µM.
As to `COc1cc(Nc2nc(NS(=O)(=O)c3cc(C)c(Cl)cc3S)n[nH]2)cc(OC)c1OC`, the TGI with CAKI-1 renal, in the assay with DU-145 prostate, in the assay with HCC-2998 colon, with HCT-116 colon, in the assay with HL-60(TB) leukemia and with IGROV1 ovarian was over 100 µM each time. The TGI in the assay with NCI-H226 lung, in the assay with PC-3 prostate, with SK-MEL-5 melanoma and in the assay with UACC-257 melanoma was over 100 µM in each case.
For `O=C1C(CN2CCCC2)CCC1CN1CCCC1` (stereo not given), the TGI with CAKI-1 renal was 24.6 µM; in the assay on DU-145 prostate, over 100 µM; with HCC-2998 colon it was over 100 µM; with HCT-116 colon, 32.6 µM; with HL-60(TB) leukemia, over 100 µM; in the assay on IGROV1 ovarian it was over 82.3 µM. Moreover, the TGI with NCI-H226 lung was over 74.4 µM; in the assay on PC-3 prostate, over 55.9 µM; in the assay on SK-MEL-5 melanoma, 31.9 µM; in the assay with UACC-257 melanoma, 32.6 µM.
As to `COc1nc2c(c(=O)[nH]1)N=C(c1ccc([N+](=O)[O-])cc1)CC(c1ccccc1)N2` (stereo not given), the TGI with CAKI-1 renal was over 100 µM; with DU-145 prostate, over 100 µM; in the assay with HCC-2998 colon, over 100 µM; with HCT-116 colon, over 100 µM; with HL-60(TB) leukemia, 46.6 µM; with IGROV1 ovarian, over 100 µM. In addition, the TGI in the assay on NCI-H226 lung, with PC-3 prostate, in the assay on SK-MEL-5 melanoma and in the assay with UACC-257 melanoma was over 100 µM throughout.
Regarding `COC(=O)[C@]1(CCC(C)=O)C(=O)C=CN([C@H](C)c2ccccc2)[C@@H]1Cc1ccc(OC)c(OCc2ccccc2)c1I`, the TGI with CAKI-1 renal was over 100 µM; with DU-145 prostate, 37.5 µM; in the assay on HCC-2998 colon it was 29.2 µM; with HCT-116 colon, 27 µM; with HL-60(TB) leukemia, 69.8 µM; with IGROV1 ovarian, 29.1 µM. In addition, the TGI in the assay with NCI-H226 lung amounted to 34.3 µM; in the assay with PC-3 prostate it was 74.5 µM; with SK-MEL-5 melanoma, 26.9 µM; in the assay on UACC-257 melanoma it was 32.6 µM.
As to `CCOC(=O)c1c2ccccc2n2c(=O)n(-c3ccccc3)nnc12`, the TGI in the assay with CAKI-1 renal, with DU-145 prostate, in the assay on HCC-2998 colon, in the assay on HCT-116 colon, in the assay with HL-60(TB) leukemia and with IGROV1 ovarian was over 100 µM in each case. In addition, the TGI in the assay with NCI-H226 lung is over 100 µM; with PC-3 prostate, over 100 µM; in the assay on SK-MEL-5 melanoma, 41.7 µM; with UACC-257 melanoma, over 100 µM.
Consider `C=C1C(=O)O[C@H]2[C@@H]3O[C@@](C)(CC/C=C(\C)CCC[C@@H]2C)[C@H](O)C[C@@H]13`, for which the TGI is 4.53 µM with CAKI-1 renal; 27.2 µM in the assay on DU-145 prostate; 31.6 µM in the assay with HCC-2998 colon; over 100 µM with HCT-116 colon; 53 µM in the assay on HL-60(TB) leukemia; 35.6 µM in the assay with IGROV1 ovarian. Also, the TGI came to 5.89 µM with NCI-H226 lung, 22.1 µM with PC-3 prostate, 6.36 µM in the assay with SK-MEL-5 melanoma and 27.4 µM in the assay on UACC-257 melanoma.
Regarding `CN(C)CCCCN1c2ccccc2Sc2ccc(N=[N+]=[N-])cc21`, the TGI was 18.4 µM in the assay on CAKI-1 renal; 18.2 µM with DU-145 prostate; 3.18 µM in the assay with HCC-2998 colon; 16.3 µM in the assay on HCT-116 colon; 4.3 µM in the assay with HL-60(TB) leukemia; 11.7 µM in the assay with IGROV1 ovarian. In addition, the TGI in the assay on NCI-H226 lung turned out to be 17.7 µM; in the assay on PC-3 prostate, 10.5 µM; with SK-MEL-5 melanoma it was 3.04 µM; with UACC-257 melanoma it was 3.54 µM.
With `O=c1[nH]c2ccccc2c(=O)c2cc3ccccc3cc12`, the TGI was 45.5 µM with CAKI-1 renal; over 100 µM in the assay with DU-145 prostate; over 100 µM in the assay with HCC-2998 colon; 20.3 µM in the assay with HCT-116 colon; over 100 µM with HL-60(TB) leukemia; over 100 µM with IGROV1 ovarian. Further, the TGI in the assay with NCI-H226 lung is 45.8 µM; in the assay on PC-3 prostate, over 100 µM; in the assay with SK-MEL-5 melanoma, over 100 µM; with UACC-257 melanoma it was over 100 µM.
In the case of `COc1ccccc1Nc1nc(N)nc(N)c1N`, the TGI with CAKI-1 renal is over 100 µM; in the assay on DU-145 prostate it was over 100 µM; in the assay with HCC-2998 colon, over 100 µM; with HCT-116 colon, 39.8 µM; in the assay with HL-60(TB) leukemia, 85 µM; in the assay on IGROV1 ovarian, over 100 µM. In addition, the TGI in the assay with NCI-H226 lung, in the assay with PC-3 prostate, in the assay on SK-MEL-5 melanoma and in the assay with UACC-257 melanoma was over 100 µM in each case.
For `COc1ccc2nc3cc(Cl)ccc3c(NCCCN(C)CCCNc3ccc4ncn5c6ccccc6c(=O)c3c45)c2c1`, the TGI was found to be 4.36 µM with CAKI-1 renal; 7.19 µM with DU-145 prostate; 0.423 µM in the assay on HCC-2998 colon; 4.86 µM in the assay on HCT-116 colon; 2.2 µM in the assay on HL-60(TB) leukemia; 4.37 µM with IGROV1 ovarian. Moreover, the TGI was determined as 1.98 µM with NCI-H226 lung, 5.34 µM in the assay on PC-3 prostate, 4.62 µM in the assay with SK-MEL-5 melanoma and 6.81 µM with UACC-257 melanoma.
Consider `COC(=O)c1c(C(=O)OC)c2ccccn2c1-c1cc(C)cc2c1C(=O)C=CC2=O`, for which the TGI in the assay on CAKI-1 renal is 12.4 µM; with DU-145 prostate it was 20.1 µM; with HCC-2998 colon, 20.1 µM; with HCT-116 colon it was 15.7 µM; in the assay with HL-60(TB) leukemia it was 5.04 µM; in the assay with IGROV1 ovarian, 17.3 µM. For the same compound, the TGI in the assay with NCI-H226 lung is 19.7 µM; in the assay with PC-3 prostate it was 18.5 µM; with SK-MEL-5 melanoma it was 17 µM; in the assay on UACC-257 melanoma it was 13.6 µM.
As for `NCCCc1nonc1C(=O)O`, the TGI with CAKI-1 renal, in the assay with DU-145 prostate, in the assay on HCC-2998 colon, in the assay with HCT-116 colon, with HL-60(TB) leukemia and with IGROV1 ovarian was over 100 µM throughout. For the same compound, the TGI with NCI-H226 lung, in the assay with PC-3 prostate, in the assay on SK-MEL-5 melanoma and with UACC-257 melanoma was over 100 µM in each case.
With `O=C(O)c1ccc2nc(-c3ccccn3)c(-c3ccccn3)nc2c1`, the TGI in the assay on CAKI-1 renal, in the assay on DU-145 prostate, with HCC-2998 colon, in the assay with HCT-116 colon, with HL-60(TB) leukemia and in the assay on IGROV1 ovarian was over 100 µM in each case. Besides, the TGI in the assay with NCI-H226 lung, in the assay with PC-3 prostate, in the assay with SK-MEL-5 melanoma and in the assay with UACC-257 melanoma was over 100 µM in each case.
For `O=c1cc(O)c1=O`, the TGI in the assay with CAKI-1 renal, in the assay on DU-145 prostate, in the assay on HCC-2998 colon, in the assay with HCT-116 colon, in the assay with HL-60(TB) leukemia and in the assay with IGROV1 ovarian was over 100 µM in each case. In addition, the TGI in the assay on NCI-H226 lung, in the assay on PC-3 prostate, with SK-MEL-5 melanoma and with UACC-257 melanoma was over 100 µM throughout.
Turning to `NS(=O)(=O)c1ccc(NNc2c3ccccc3nc3c(C(=O)Nc4ccc(S(N)(=O)=O)cc4)cccc23)cc1`, the TGI with CAKI-1 renal is over 100 µM; in the assay with DU-145 prostate it was over 100 µM; in the assay on HCC-2998 colon, 86.7 µM; in the assay with HCT-116 colon, over 100 µM; with HL-60(TB) leukemia, 68.9 µM; in the assay with IGROV1 ovarian, over 100 µM. The TGI in the assay with NCI-H226 lung, in the assay with PC-3 prostate, in the assay with SK-MEL-5 melanoma and with UACC-257 melanoma was over 100 µM in each case.
Turning to `COCc1nc(C#N)c(N)o1`, the TGI in the assay on CAKI-1 renal, in the assay on DU-145 prostate, in the assay on HCC-2998 colon, in the assay with HCT-116 colon, with HL-60(TB) leukemia and in the assay on IGROV1 ovarian was over 10 µM throughout. The TGI with NCI-H226 lung, in the assay with PC-3 prostate, in the assay on SK-MEL-5 melanoma and with UACC-257 melanoma was over 10 µM each time.
Turning to `COc1cc(OC)cc(Oc2nc3ccc(C(F)(F)F)cc3nc2-c2ccccc2)c1`, the TGI with CAKI-1 renal, with DU-145 prostate, with HCC-2998 colon, in the assay on HCT-116 colon, in the assay with HL-60(TB) leukemia and in the assay with IGROV1 ovarian was over 100 µM in each case. For the same compound, the TGI with NCI-H226 lung, with PC-3 prostate, with SK-MEL-5 melanoma and in the assay on UACC-257 melanoma was over 100 µM in each case.
